These results are taken from article PMC9505067, “Synthesis of Hydantoin Androgen Receptor Antagonists and Study on Their Antagonistic Activity” (Molecules, 2022).

In general, melting point refers to the temperature of the solid-liquid transition. Broadly, the IC50 is the concentration that gives 50% inhibition.

The structures appear in SMILES notation. Where two headings read alike, the source gives them in different places.

The test system of series [1] is LNCaP cells. The series is described as follows: Anti-proliferative activity assay in LNCaP cells (CCK-8). In kind it is cell-based. Particulars: 72 h treatment, normalized relative to DMSO-control treated cells, means ± SD, concentration not given. As for the experimental part:
We performed experiments accordingly to detect the anti-proliferative effect of compounds using the prostate cancer LNCaP cell line. The measurement of proliferative activity was performed after treatment with a concentration range of each compound for 72 h.
LNCaP cells were cultured in RPMI-1640 medium (Life Technologies, Carlsbad, CA, USA) supplemented with 10% (v/v) fetal bovine serum, 1% sodium pyruvate and 1% L-Glutamine. The cells were seeded into 96-well plates at a density of 8 × 10^4 cells per well. After 24 h incubation, the culture medium was removed and the cells were cultivated in the medium supplemented with 2% (v/v) fetal bovine serum for 2 days and then treated with different concentrations of test compounds for 3 days. Cell viability was measured with the CCK-8 kit (Dojindo).

Series [2] has as its target T1, androgen receptor (AR) (Homo sapiens, UniProt P10275).
T1 sequence (P10275 1-920): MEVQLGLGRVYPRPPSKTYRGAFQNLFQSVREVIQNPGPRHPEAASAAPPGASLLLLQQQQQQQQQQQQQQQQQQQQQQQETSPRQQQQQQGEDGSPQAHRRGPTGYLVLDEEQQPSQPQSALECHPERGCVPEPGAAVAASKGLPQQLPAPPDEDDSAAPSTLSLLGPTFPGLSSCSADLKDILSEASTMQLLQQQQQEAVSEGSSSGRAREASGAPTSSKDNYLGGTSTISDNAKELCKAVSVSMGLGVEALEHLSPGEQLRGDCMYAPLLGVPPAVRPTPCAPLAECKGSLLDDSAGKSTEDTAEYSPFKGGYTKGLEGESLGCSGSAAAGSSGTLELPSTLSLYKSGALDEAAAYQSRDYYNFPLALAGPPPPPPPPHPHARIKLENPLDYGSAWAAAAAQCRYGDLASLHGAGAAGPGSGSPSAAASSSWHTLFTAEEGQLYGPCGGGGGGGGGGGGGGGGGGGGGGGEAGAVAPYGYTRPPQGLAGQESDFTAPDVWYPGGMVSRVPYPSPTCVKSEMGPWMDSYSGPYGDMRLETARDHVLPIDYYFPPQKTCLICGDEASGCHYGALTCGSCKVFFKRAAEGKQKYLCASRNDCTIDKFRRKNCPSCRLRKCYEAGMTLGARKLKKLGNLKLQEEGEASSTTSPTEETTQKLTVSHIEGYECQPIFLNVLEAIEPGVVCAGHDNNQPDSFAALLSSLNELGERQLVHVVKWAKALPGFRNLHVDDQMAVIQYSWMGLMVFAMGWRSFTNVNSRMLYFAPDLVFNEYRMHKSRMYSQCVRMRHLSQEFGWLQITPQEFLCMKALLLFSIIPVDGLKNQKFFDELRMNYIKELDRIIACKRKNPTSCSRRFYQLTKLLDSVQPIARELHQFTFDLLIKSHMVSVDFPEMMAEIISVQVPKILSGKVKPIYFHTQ
The experiment in a line: AR antagonist luciferase gene reporter assay (AR plasmid pSVAR0 + MMTV-Luc, DHT at EC80). For orientation: In a reporter assay the amount or activity of a reporter protein is the signal.

Where [3] appears, read: Antagonist Activity in CV-1 IC50, luciferase reporter in AR-transfected cells, DHT at EC80, 24 h incubation, means ± SD of three independent experiments.

In the case of `CC1(CO)C(=O)N(c2ccc(C#N)c(C(F)(F)F)c2)C(=S)N1c1ccc(F)cc1` (stereo not drawn) [6c, 4-(3-(4-fluorophenyl)-4-(hydroxymethyl)-4-methyl-5-oxo-2-thioxoimidazolidin-1-yl)-2-(trifluoromethyl)benzonitrile], the melting point was in the range of 231 to 233 °C. Further, in series [1], the “Proliferative/Anti-Proliferative Activity in LNCAP” value stood at 118.7 ± 22.1%. In series [2], the “Antagonist Activity in CV-1 Efficacy” value is on record as 91 ± 5.9%. The IC50 in series [2] (setting [3]) was found to be 46.2 ± 4.1 nM.
The matching figures for `CC1(CO)C(=O)N(c2cnc(C#N)c(C(F)(F)F)c2)C(=S)N1c1ccccc1` (stereo not drawn) [19a, 5-(4-(hydroxymethyl)-4-methyl-5-oxo-3-phenyl-2-thioxoimidazolidin-1-yl)-3-(trifluoromethyl)picolinonitrile]: 203 to 205 °C, 122.8 ± 16.8%, 61.27 ± 12.44% and 18.4 ± 8.65 nM.
In the case of `C[C@]12CCC(=O)C[C@@H]1CC[C@@H]1[C@@H]2CC[C@]2(C)[C@@H](O)CC[C@@H]12` [DHT, reference compound], the “Proliferative/Anti-Proliferative Activity in LNCAP” value in series [1] worked out at 186.7 ± 5.6%.
Still for that read-out and setting: the figure for `CNC(=O)c1ccc(N2C(=S)N(c3ccc(C#N)c(C(F)(F)F)c3)C(=O)C2(C)C)cc1F` [Enzalutamide, reference compound] is 71.4 ± 7.8%.
As to `Cc1ccc(N2C(=S)N(c3ccc(C#N)c(C(F)(F)F)c3)C(=O)C2(C)CO)cc1` (stereo not drawn) [6b, 4-(4-(hydroxymethyl)-4-methyl-5-oxo-2-thioxo-3-(p-tolyl)imidazolidin-1-yl)-2-(trifluoromethyl)benzonitrile], the melting point fell in the range of 190 to 192 °C. In series [2], the “Antagonist Activity in CV-1 Efficacy” value is reported as 86 ± 4.2%. For the same compound, in series [2] (setting [3]), the IC50 amounted to 549 ± 47.8 nM.
Compound `CC1(CO)C(=O)N(c2cnc(C#N)c(C(F)(F)F)c2)C(=S)N1c1ccc(F)cc1` (stereo not drawn) [19b, 5-(3-(4-fluorophenyl)-4-(hydroxymethyl)-4-methyl-5-oxo-2-thioxoimidazolidin-1-yl)-3-(trifluoromethyl)picolinonitrile] gave a melting point of 181 to 183 °C. The “Proliferative/Anti-Proliferative Activity in LNCAP” value in series [1] stood at 65.7 ± 20.5%. Also, the IC50 in series [2] is 32.5 ± 22.1 nM. In addition, the “Antagonist Activity in CV-1 Efficacy” value in series [2] (luciferase reporter in AR-transfected cells, DHT at EC80, 24 h, enzalutamide = 100, means ± SD of three independent experiments) was found to be 75.55 ± 11.87%.
The compound `CC1(CO)C(=O)N(c2ccc(C#N)c(C(F)(F)F)c2)C(=S)N1c1ccccc1` (stereo not drawn) [6a, 4-(4-(hydroxymethyl)-4-methyl-5-oxo-3-phenyl-2-thioxoimidazolidin-1-yl)-2-(trifluoromethyl)benzonitrile] showed a melting point of 216 to 219 °C. Further, the “Proliferative/Anti-Proliferative Activity in LNCAP” value in series [1] was 149.3 ± 14.2%. Besides, in series [2], the “Antagonist Activity in CV-1 Efficacy” value stood at 101 ± 6.7%. For the same compound, the half-maximal inhibitory concentration (IC50) in series [2] (setting [3]) came to 46.8 ± 6.2 nM.
`COc1ccc(N2C(=S)N(c3ccc(C#N)c(C(F)(F)F)c3)C(=O)C2(C)CO)cc1` (stereo not drawn) [6f, 4-(4-(hydroxymethyl)-3-(4-methoxyphenyl)-4-methyl-5-oxo-2-thioxoimidazolidin-1-yl)-2-(trifluoromethyl)benzonitrile] registered a melting point of 183 to 185 °C. Also, the “Antagonist Activity in CV-1 Efficacy” value in series [2] turned out to be 89 ± 3.7%. Further, the 50% inhibitory concentration (IC50) in series [2] (setting [3]) was found to be 286 ± 29.5 nM.
The matching figures for `COc1ccc(N2C(=O)N(c3ccc(C#N)c(C(F)(F)F)c3)C(=O)C2(C)CO)cc1` (stereo not drawn) [7f, 4-(4-(hydroxymethyl)-3-(4-methoxyphenyl)-4-methyl-2,5-dioxoimidazolidin-1-yl)-2-(trifluoromethyl)benzonitrile]: 128 to 130 °C, 90 ± 13.3% and 416 ± 230 nM.
For `COC(=O)c1ccc(N2C(=O)N(c3ccc(C#N)c(C(F)(F)F)c3)C(=O)C2(C)CO)cc1` (stereo not drawn) [7j, methyl 4-(3-(4-cyano-3-(trifluoromethyl)phenyl)-5-(hydroxymethyl)-5-methyl-2,4-dioxoimidazolidin-1-yl)benzoate], in that order: 139 to 141 °C, 96 ± 10.8% and 139 ± 36.2 nM.
The matching figures for `CC1(CO)C(=O)N(c2ccc(C#N)c(C(F)(F)F)c2)C(=S)N1c1ccc(C(F)(F)F)cc1` (stereo not drawn) [6i, 4-(4-(hydroxymethyl)-4-methyl-5-oxo-2-thioxo-3-(4-(trifluoromethyl)phenyl)imidazolidin-1-yl)-2-(trifluoromethyl)benzonitrile]: 178 to 180 °C, 102 ± 8.9% and 68.2 ± 4.6 nM.
Consider `CC1(CO)C(=O)N(c2ccc(C#N)c(C(F)(F)F)c2)C(=O)N1c1ccc(Br)cc1` (stereo not drawn) [7e, 4-(3-(4-bromophenyl)-4-(hydroxymethyl)-4-methyl-2,5-dioxoimidazolidin-1-yl)-2-(trifluoromethyl)benzonitrile], for which the melting point was in the range of 102 to 104 °C. The “Antagonist Activity in CV-1 Efficacy” value in series [2] amounted to 95 ± 11.2%. Further, the IC50 in series [2] (setting [3]) was determined as 84.2 ± 37.1 nM.
